# Experimental data taken from PMC12521527, “In vivo self-assembled nano-PROTAC for the dual degradation of AR and HSP90 to overcome castration-resistant prostate cancer resistance” (Signal Transduction and Targeted Therapy, 2025).
# pKd: −log10 of the molar value. Numbered stars: 1 amine (or outer) side, 2 acyl side, 3 side chain; on linkers, the order of the positions; unused ones are H or OH. Square brackets hold non-standard residues; d marks the D form. Peptide text beside a SMILES is read from it. * marks the point of attachment. X2 = CC1(C)C(=O)N(c2ccc(C#N)c(C(F)(F)F)c2)C(=S)N1c1ccc(C(=O)*)c(F)c1; X1 = O=C1CCC(N2C(=O)c3cccc(N(CC(=O)[*:2])[*:1])c3C2=O)C(=O)N1; EuK = O=C(O)CC[C@H](NC(=O)N[C@@H](CCCCN*)C(=O)O)C(=O)O; 2Nal = N[C@@H](Cc1ccc2ccccc2c1)C(=O)O
# What was measured:
# [1] = tested on: AR; experiment: Western blot AR degradation in 22Rv1 cells; type: cell-based
# Description: All uncropped blots are presented in Supplementary Fig. 26. j, k Representative 22Rv1 cell CLSM images of the degradation of AR after incubation with FITC-labeled Psa-AR for 12 h and quantitative analysis, n = 3 per group. Scale bar: 10 μm. l, m Representative 22Rv1 cell CLSM images of the degradation of HSP90 after incubation with FITC-labeled Psa-AR for 12 h and quantitative analysis, n = 3 per group. Scale bar: 10 μm. n AR-V7 expression in 22Rv1 cells after treatment with PBS, P-AR (20 μM), Psa-AR (20 μM) or Psa-AR (20 μM) combined with MG132 (2 μM) for 48 h, as determined by western blotting. β-Actin was used as an internal reference. o Results of apoptosis in 22Rv1 cells treated with PBS, P-AR (20 μM), or Psa-AR (20 μM) for 48 h, as detected by flow cytometry.
# The pretreated cells were resuspended in lysis buffer containing 50 mM Tris-HCl (pH 8.0), 150 mM NaCl, 1% (v/v) Triton X-100, and protease inhibitors. The protein concentration was determined via a BCA kit (Applygen). Each sample ([…]) was subjected to SDS‒PAGE and then transferred to a PVDF membrane. The blots were blocked in 5% (wt/v) blocking buffer. After washing three times with TBST buffer (10 mM TBS solution containing 0.1% (v/v) Tween-20), the blots were incubated with primary antibodies at 4 °C on a shaker for 16 h. After washing with TBST buffer three times, the blot was incubated with secondary antibodies at room temperature on a shaker for 2 h. After being washed three times with TBST buffer, the blots were subsequently scanned on a Typhoon Trio Variable Mode Imager.
# [2] = target: CRBN protein (Homo sapiens, UniProt Q96SW2); experiment: MST binding affinity, Psa-AR and CRBN protein; settings: RED-NHS-labeled CRBN 400 nM, PBS-T, 22 °C, n = 3
# Text: Fig. 3 Polynary nanocomposite (AR: Psa-AR: CRBN) formation. a Dose‒response curve for the binding interaction between Psa-AR and the AR protein; n = 3 per group. b Dose‒response curve for the binding interaction between Psa-AR and the CRBN protein; n = 3 per group. c Dose‒response curve for the binding interaction between the binary complex (Psa-AR: AR) and CRBN, n = 3 per group. d In vitro Psa-AR self-assembly, protein binding and degradation. e Representative 22Rv1 cell CLSM images of FITC-labeled Psa-AR assembly (green channel) interacting with HSP90 (red channel) and its colocalization analysis (1–1’). […] Scale bar: 10 μm.
# MST (NanoTemper Technologies GmbH, Munich, Germany) was utilized to evaluate the binding affinity between Psa-AR and RED-NHS-labeled PSMA, AR, or CRBN proteins. The PSMA, AR, and CRBN proteins were labeled with the Protein Labeling Kit RED-NHS 2nd Generation (Amine Reactive). RED-PSMA, RED-AR, and RED-CRBN proteins were diluted to a final concentration of 400 nM with PBS-T buffer (0.05% Tween 20), where the fluorescence signals satisfied the typical detection limit of the Monolith NT.115 instrument (NanoTemper Technologies). The binding affinity between Psa-AR and the RED-NHS-labeled AR protein was assessed. […] Then, 10 µL of RED-CRBN was added to each sample to achieve a final concentration of 400 nM. […] The data were analyzed by NanoTemper analysis software.
# [3] = TEM of assemblies after PSMA addition; type: physicochemical; settings: 40 μM, within 0.5 h of PSMA engagement
# [4] = western blot, 22Rv1, 20 μM, 48 h
# CRBN protein, sequence (Q96SW2 whole entry): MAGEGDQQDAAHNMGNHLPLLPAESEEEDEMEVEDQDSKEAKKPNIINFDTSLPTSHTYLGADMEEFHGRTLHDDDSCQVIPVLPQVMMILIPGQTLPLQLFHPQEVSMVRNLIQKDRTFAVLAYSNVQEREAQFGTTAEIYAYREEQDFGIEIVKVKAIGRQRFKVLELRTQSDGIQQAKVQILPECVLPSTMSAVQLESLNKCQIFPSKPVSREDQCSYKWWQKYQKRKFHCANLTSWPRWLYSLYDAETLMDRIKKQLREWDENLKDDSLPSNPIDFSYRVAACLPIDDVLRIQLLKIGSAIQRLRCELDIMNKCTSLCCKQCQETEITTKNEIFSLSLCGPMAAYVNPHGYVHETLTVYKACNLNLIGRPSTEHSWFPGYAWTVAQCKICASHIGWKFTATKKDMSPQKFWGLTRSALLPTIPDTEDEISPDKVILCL
structure (smiles),measurement,setting,value
CC1(C)C(=O)N(c2ccc(C#N)c(C(F)(F)F)c2)C(=S)N1c1ccc(C(=O)NCCCC[C@H](NC(=O)CNc2cccc3c2C(=O)N(C2CCC(=O)NC2=O)C3=O)C(=O)N[C@@H](CS)C(=O)N[C@@H](CCC(N)=O)C(=O)N[C@@H](Cc2ccc(O)cc2)C(=O)N[C@@H](CC(N)=O)C(=O)N[C@@H](CCC(N)=O)C(=O)N[C@@H](Cc2ccc(O)cc2)C(=O)N[C@@H](Cc2ccc(O)cc2)C(=O)N[C@@H](Cc2ccc3ccccc3c2)C(=O)NCCCC[C@H](NC(=O)N[C@@H](CCC(=O)O)C(=O)O)C(=O)O)c(F)c1 (stereo partly drawn) [Psa-AR] (H-[X1]K(X2)CQYNQYY[2Nal]-EuK),AR protein knockdown maintained within 96-h observation period,"[1]; 22Rv1, 20 μM, 12–96 h",over 99%
same,DC50,"[1]; 22Rv1 cell line, 1 to 100 μM, read-out: DC50 for AR protein degradation",9.45 µM
same,AR degradation compared with PBS controls,[1]; [4],79%
same,enhancement of AR degradation over P-AR,[1]; [4],45%
same,pKd,[2],5.97
same,diameter of spherical nanoparticles,[3],200–250 nm
